The subject of series [1] is Primary NNRCCs (neonatal rat cardiac cells), 2D culture dishes and 3D constructs. Nature of the series: Spontaneous contractile (beat) frequency of cardiac cell cultures before and after exposure to adrenergic/cholinergic agents. Conditions: for Propranolol responders: responding cultures of all cultures; for Postproprandolol beat frequency: three minutes after pharmacological dose, responders, 37° C.; for decrease in beat frequency post propranolol: versus baseline of responders. The class given is cell-based. The method, then: Primary NNRCCs in SFHM form spontaneously and rhythmically contracting cultures within the first twenty hours after plating in monolayer cultures. To directly assess contractility and the modulation of contractile activity by […], the effects of propranolol, which is a beta-blocker on the frequency of spontaneous contraction in 2D and 3D preparation were evaluated. 3D cardiac cell cultures were prepared in transparent Teflon® culture bags that were slowly rotated to quiescently suspend the cells and HFN-coated polystyrene beads. Cultures were observed on a 37° C. microscope stage and the spontaneous contractile frequency of the constructs was determined. Samples were then exposed to a pharmacological dose of propranolol without disturbing the field of view on the microscope stage. Three minutes later, the contractile frequency was reassessed.
As expected, both culture types were spontaneously contractile. In standard (2D) preparations entire culture wells beat in unison. In the 3D constructs, entire aggregates of cells in physical contact beat in unison. […]

Series [2] relates to bioreactor cultured neonatal rat cardiac cells on microcarriers (BMP 2 function). Briefly: Formation of tissue-like aggregates in bioreactor cardiac cultures with Noggin (BMP antagonist) in the media. Type of series: cell-based. The method, then:
2 day old neonatal rat pups were halothane anesthetized and cardioectomitized. The isolated hearts were minced and subjected to about 16 hour digestion by about […] trypsin, followed by about […] collagenase II digestion and cell straining to completely separate individual cells. The cells were then counted on hemocytometer with trypan blue staining aid resuspended in modified serum-free cardiac media (SM3+) at a density of about 1×10^6 total cells/ml. Cells were then mixed with fibronectin-coated Nunclon plastic microcarriers at […] and infused into PTFE bags for bioreactor rotation, with the remainder plated onto fibronectin-coated six-well Nunclon plastic plates at a density of about 2×10^6 cells/well as a control population. Feeding was performed at about 24 hours post-inoculation to remove unattached cells, and about every 3 days thereafter. Samples were collected prior to culture start (Day 0) and at varying intervals thereafter. For the Noggin treatment protocol, about. 0.4 μg/ml Noggin (Pepro Tech, London, UK) in about 10 mM acetic acid was added to media just prior to inoculation and to media used for feeding, with control using untreated media.
Moreover, Noggin was used to assess the role of BMP2 in the formation of tissue-like aggregates in bioreactors. Noggin is a secreted factor which acts as an antagonist for members of the BMP family of proteins (i.e., in solution, Noggin will bind BMP 2 and prevent BMP 2 from binding to its receptor). Thus, adding an effective amount of Noggin to the culture media may suppress BMP 2 function. […] The control bioreactor cardiac cultures formed large tissue-like aggregates surrounding multiple microcarriers complete with substantial thick structure formation visible between the microcarriers.

For `CC(C)NCC(O)COc1cccc2ccccc12` (centres unmarked) [Propranolol, propranolol], in series [1] (2D/culture dishes), the Propranolol responders entry is “(19 of 25)”, the Postproprandolol beat frequency is reported as 130.86 (±10.23) and the “decrease in beat frequency post propranolol” value turned out to be 30% decrease. Besides, in series [1] (3D/HARVs), the Propranolol responders entry is “(6 of 12)”, the Postproprandolol beat frequency was 34.59 (±3.842) and the “decrease in beat frequency post propranolol” value was 34% decrease. In addition, in series [1] (both 3D and 2D conformations), the “effect on beat frequency” value is “decrease in beat frequency in a subset of cultures”.

As for `CN1[C@@H]2CC[C@H]1C[C@@H](OC(=O)C(CO)c1ccccc1)C2` (some centres unmarked) [atropine], the “alteration of baseline contractile frequency” value in series [1] (cholinergic antagonist) is “did not result in an alteration of baseline contractile frequency”.

B1: Noggin: secreted factor which acts as an antagonist for members of the BMP family of proteins (Pepro Tech) (protein, UniProt Q13253 28-232, looked up)
Noggin: QHYLHIRPAPSDNLPLVDLIEHPDPIFDPKEKDLNETLLRSLLGGHYDPGFMATSPPEDRPGGGGGAAGGAEDLAELDQLLRQRPSGAMPSEIKGLEFSEGLAQGKKQRLSKKLRRKLQMWLWSQTFCPVLYAWNDLGSRFWPRYVKVGSCFSKRSCSVPEGMVCKPSKSVHLTVLRWRCQRRGGQRCGWIPIQYPIISECKCSC
In the case of B1, the “aggregate size (connected microcarrier supports)” value in series [2] (Noggin treated bioreactor culture, 6 days post inoculation) is recorded as 2-3 microcarrier supports. The “contractile activity / myocyte interaction” value in series [2] (Noggin-treated cultures, about 8 hour post-inoculation) is “no disruption in myocyte interaction or contractile apparatus reformation”. Also, the tissue-like aggregate formation entry in series [2] (about 0.4 μg/ml Noggin in media, bioreactor culture) is on record as “only small thin aggregates”.

Values taken from patent US20080075750A1, “METHODS FOR PRODUCING THREE-DIMENSIONAL TISSUE-ENGINEERED CARDIAC CONSTRUCTS AND USES REGARDING SAME” (The Nemours Foundation, priority 2001, published 2008).
